In the supplement of paper PMC11061612:

How the values were obtained:
[1] = compound: COc1cccc(OCCCN)c1-c1cc(Nc2cnc(C#N)cn2)n[nH]1 [Prexasertib]; details: max 1 µM
In short: (§1)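 Cancer cell lines were seeded in 1536-well plates in 7.5 μl DMEM/F12 or RPMI with 10% FBS, held 24 hours at 37°C and 5% CO2, then dosed for 72 hours (final DMSO typically 0.2%). Viability was read by CellTiter-Glo 2.0 luminescence and scaled between blank-well and DMSO-well means. The single-agent IC50 comes from dose responses fitted to a two-parameter logistic curve with a non-linear mixed effects model.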

[2] = compound: CCN(CCO)CCCOc1ccc2c(Nc3cc(CC(=O)Nc4cccc(F)c4)[nH]n3)ncnc2c1 [AZD2811]; details: max 1 µM
In short: as §1

[3] = compound: C[C@@H](Nc1cc(F)cc(F)c1)c1cc(C(=O)N(C)C)cc2c(=O)cc(N3CCOCC3)oc12 [AZD8186]; details: max 10 µM
In short: as §1

[4] = compound: C[C@@H]1COCCN1C2=NC(=NC(=C2)C3(CC3)[S@](=N)(=O)C)C4=C5C=CNC5=NC=C4 [AZD6738]; details: max 10 µM
In short: as §1

[5] = compound: COc1nnc2ccc(N3CCC(c4ccc(OCCN5CCN(C)C(=O)[C@H]5C)cc4)CC3)nn12 [AZD5153]; details: max 1 µM
In short: as §1

[6] = compound: O=C(c1cc(Cc2n[nH]c(=O)c3ccccc23)ccc1F)N1CCN(C(=O)C2CC2)CC1 [Olaparib]; details: max 10 µM
In short: as §1

[7] = compound: CN(C)CCCOc1ccc(-c2ccc3ncc4c(c3c2)n(C2CCOCC2)c(=O)n4C)cn1 [AZD0156]
In short: as §1

[8] = compound: CN(CC[C@H](CSC1=CC=CC=C1)NC2=C(C=C(C=C2)S(=O)(=O)NC(=O)C3=CC=C(C=C3)N4CCC(CC4)[C@H](C5=CC=CC=C5C6=CC=C(C=C6)Cl)O)S(=O)(=O)C(F)(F)F)CCO [AZD4320]; details: max 1 µM
In short: as §1

[9] = compound: O=c1[nH]cc(F)c(=O)[nH]1 [5-Fluorouracil]; details: max 20 µM
In short: as §1

[10] = compound: C=CCn1c(=O)c2cnc(Nc3ccc(N4CCN(C)CC4)cc3)nc2n1-c1cccc(C(C)(C)O)n1 [AZD1775]
In short: as §1

[11] = compound: C[C@@H](Oc1cc(-c2cnn(C3CCNCC3)c2)cnc1N)c1c(Cl)ccc(F)c1Cl [Crizotinib]; details: max 10 µM
In short: as §1

[12] = compound: COc1cc(Nc2ncc3c(n2)-c2ccc(Cl)cc2C(c2c(F)cccc2OC)=NC3)ccc1C(=O)O [Alisertib]; details: max 10 µM
In short: as §1

[13] = compound: O=C(Nc1ccc2[nH]nc(-c3ccncc3)c2c1)[C@@H]1CCN(CC(=O)N2CCN(c3ccc(-c4ncccn4)cc3)CC2)C1; details: max 5 µM
In short: as §1

[14] = compound: COc1cc2ncnc(Nc3ccc(F)c(Cl)c3)c2cc1OCCCN1CCOCC1 [Gefitinib]; details: max 10 µM
In short: as §1

[15] = compound: CC1(C)CCC(CN2CCN(c3ccc(C(=O)NS(=O)(=O)c4ccc(NCC5CCOCC5)c([N+](=O)[O-])c4)c(Oc4cnc5[nH]ccc5c4)c3)CC2)=C(c2ccc(Cl)cc2)C1 [Venetoclax]; details: max 1 µM
In short: as §1

[16] = compound: CC1=CN2[C@@H](C1)C=NC3=CC(=C(C=C3C2=O)OC)OCCCCCOC4=C(C=C5C(=C4)N=C[C@@H]6CC(=CN6C5=O)C)OC [SG3199]; details: max 0.001 µM
In short: as §1

[17] = compound: Cc1nc(-c2cn3c(n2)-c2ccc(-c4cnn(C(C)(C)C(N)=O)c4)cc2OCC3)n(C(C)C)n1 [Taselisib]; details: max 10 µM
In short: as §1

[18] = compound: CS(=O)(=O)CCNCc1ccc(-c2ccc3ncnc(Nc4ccc(OCc5cccc(F)c5)c(Cl)c4)c3c2)o1 [Lapatinib]; details: max 10 µM
In short: as §1

[19] = compound: CC(=O)c1c(C)c2cnc(Nc3ccc(N4CCNCC4)cn3)nc2n(C2CCCC2)c1=O [Palbociclib]; details: max 10 µM
In short: as §1

[20] = compound: Cc1c2c(nn1C)CSCc1cc(n(C)n1)CSc1cc(c3ccccc3c1)OCCCc1c(C(=O)O)n(C)c3c-2c(Cl)ccc13 [AZD5991]; details: max 1 µM
In short: as §1

[21] = compound: C[C@@H](c1ccc2nccn2c1)n1nnc2ncc(-c3cnn(C)c3)nc21 [Savolitinib]; details: max 1 µM
In short: as §1

[22] = compound: CCc1c2c(nc3ccc(O)cc13)-c1cc3c(c(=O)n1C2)COC(=O)[C@]3(O)CC [SN-38]; details: max 0.3 µM
In short: as §1

[23] = compound: NC1(c2ccc(-c3nc4ccn5c(=O)[nH]nc5c4cc3-c3ccccc3)cc2)CCC1 [MK-2206]; details: max 10 µM
In short: as §1

[24] = compound: N#Cc1cnc(Nc2cc(NC[C@H]3CNCCO3)c(C(F)(F)F)cn2)cn1 [SRA737]; details: max 10 µM
In short: as §1

[25] = compound: COc1cccc2c1C(=O)c1c(O)c3c(c(O)c1C2=O)C[C@@](O)(C(=O)CO)C[C@@H]3O[C@H]1C[C@H](N)[C@H](O)[C@H](C)O1 [Doxorubicin]; details: max 1 µM
In short: as §1

[26] = compound: CC(=O)Nc1cccc(-n2c(=O)n(C3CC3)c(=O)c3c(Nc4ccc(I)cc4F)n(C)c(=O)c(C)c32)c1 [Trametinib]; details: max 1 µM
In short: as §1

[27] = compound: Cn1cnc2c(F)c(Nc3ccc(Br)cc3Cl)c(C(=O)NOCCO)cc21 [Selumetinib]; details: max 10 µM
In short: as §1

[28] = compound: C1CC(C1)(C(=O)[O-])C(=O)[O-].N.N.[Pt+2] [Carboplatin]; details: max 10 µM
In short: as §1

[29] = compound: Cc1cc2ncnn2cc1Nc1ncc2c(n1)n(C1CCOCC1)c(=O)n2C [AZD7648]; details: max 10 µM
In short: as §1

[30] = compound: COc1cc([C@@H]2c3cc4c(cc3[C@@H](O[C@@H]3O[C@@H]5CO[C@@H](C)O[C@H]5[C@H](O)[C@H]3O)[C@H]3COC(=O)[C@H]23)OCO4)cc(OC)c1O [Etoposide]; details: max 10 µM
In short: as §1

[31] = compound: Nc1ccn([C@@H]2O[C@H](CO)[C@@H](O)C2(F)F)c(=O)n1 [Gemcitabine]; details: max 0.3 µM
In short: as §1

[32] = compound: CC1=C(C(=CC=C1)Cl)NC(=O)C2=CN=C(S2)NC3=CC(=NC(=N3)C)N4CCN(CC4)CCO [Dasatinib]; details: max 2 µM
In short: as §1

[33] = compound: CC(C)n1c(=O)n(C)c2cnc3cc(F)c(-c4ccc(OCCCN5CCCCC5)nc4)cc3c21 [AZD1390]; details: max 0.3 µM
In short: as §1

[34] = compound: CC(=O)O[C@H]1C(=O)[C@@]2(C)[C@H]([C@H](OC(=O)c3ccccc3)[C@]3(O)C[C@H](OC(=O)[C@H](O)[C@@H](NC(=O)c4ccccc4)c4ccccc4)C(C)=C1C3(C)C)[C@]1(OC(C)=O)CO[C@@H]1C[C@@H]2O [Paclitaxel]; details: max 3 µM
In short: as §1

[35] = compound: C1CN(CCC1(C(=O)N[C@@H](CCO)C2=CC=C(C=C2)Cl)N)C3=NC=NC4=C3C=CN4 [AZD5363]; details: max 10 µM
In short: as §1

Row | Cell Line | IC50, cell viability 72 h [1] [nM] | IC50, cell viability 72 h [2] [nM] | IC50, cell viability 72 h [3] [nM] | IC50, cell viability 72 h [4] [nM] | IC50, cell viability 72 h [5] [nM] | IC50, cell viability 72 h [6] [nM] | IC50, cell viability 72 h ([7]; max 3 µM) [nM] | IC50, cell viability 72 h [8] [nM] | IC50, cell viability 72 h [9] [nM] | IC50, cell viability 72 h ([10]; max 3 µM) [nM] | IC50, cell viability 72 h [11] [nM] | IC50, cell viability 72 h [12] [nM] | IC50, cell viability 72 h [13] [nM] | IC50, cell viability 72 h [14] [nM] | IC50, cell viability 72 h [15] [nM] | IC50, cell viability 72 h [16] [nM] | IC50, cell viability 72 h [17] [nM] | IC50, cell viability 72 h [18] [nM] | IC50, cell viability 72 h [19] [nM] | IC50, cell viability 72 h [20] [nM] | IC50, cell viability 72 h [21] [nM] | IC50, cell viability 72 h [22] [nM] | IC50, cell viability 72 h [23] [nM] | IC50, cell viability 72 h [24] [nM] | IC50, cell viability 72 h [25] [nM] | IC50, cell viability 72 h [26] [nM] | IC50, cell viability 72 h [27] [nM] | IC50, cell viability 72 h [28] [nM] | IC50, cell viability 72 h [29] [nM] | IC50, cell viability 72 h [30] [nM] | IC50, cell viability 72 h [31] [nM] | IC50, cell viability 72 h [32] [nM] | IC50, cell viability 72 h [33] [nM] | IC50, cell viability 72 h [34] [nM] | IC50, cell viability 72 h [35] [nM] | IC50, cell viability 72 h ([7]; max 1 µM) [nM] | IC50, cell viability 72 h ([10]; max 1 µM) [nM]
1 | D-392MG (Glioblastoma) | 775 | > 1000 | > 10000 | > 10000 | > 1000 | > 10000 | > 3000 | > 1000 | > 20000 | > 3000 | > 10000 | > 10000 | > 5000 | > 10000 | > 1000 | > 1 | > 10000 | > 10000 | > 10000 | > 1000 | > 1000 | > 300 | > 10000 | > 10000 | > 1000 | > 1000 | > 10000 | > 10000 | > 10000 | > 10000 | > 300 | > 2000 | > 300 | 245 | > 10000 | – | –
2 | SNG-M (Endometrial Carcinoma) | 23.1 | > 1000 | > 10000 | 1310 | > 1000 | > 10000 | > 3000 | > 1000 | > 20000 | 874 | > 10000 | 2440 | > 5000 | > 10000 | > 1000 | > 1 | 3820 | > 10000 | > 10000 | > 1000 | > 1000 | 153 | > 10000 | 5190 | > 1000 | > 1000 | > 10000 | > 10000 | > 10000 | > 10000 | 33 | 259 | > 300 | 6.87 | > 10000 | – | –
3 | SW48 (Colorectal Carcinoma) | 117 | 23.9 | > 10000 | 7010 | 254 | > 10000 | – | > 1000 | > 20000 | – | 3360 | 58.4 | 1330 | > 10000 | > 1000 | > 1 | 2370 | 8920 | > 10000 | > 1000 | > 1000 | 13.3 | > 10000 | > 10000 | 68.6 | 123 | > 10000 | > 10000 | > 10000 | 517 | 92.6 | > 2000 | > 300 | 3.37 | > 10000 | > 1000 | > 1000
4 | D-283MED (Other Solid Carcinomas) | 11 | 450 | 8400 | 302 | 60.8 | > 10000 | > 3000 | 425 | 7430 | 425 | 2730 | 547 | > 5000 | > 10000 | > 1000 | > 1 | 3990 | 6250 | > 10000 | > 1000 | > 1000 | 7.3 | > 10000 | 869 | 200 | > 1000 | > 10000 | > 10000 | > 10000 | 583 | 3.45 | > 2000 | > 300 | < 3 | 8850 | – | –
5 | CAL-39 (Other Solid Carcinomas) | > 1000 | > 1000 | 4770 | > 10000 | 287 | > 10000 | > 3000 | > 1000 | > 20000 | 651 | 4690 | 420 | 581 | 737 | > 1000 | > 1 | 142 | 377 | > 10000 | > 1000 | > 1000 | 22.2 | > 10000 | > 10000 | > 1000 | 59 | 1020 | > 10000 | > 10000 | 9070 | 25.2 | 73.9 | > 300 | 6.79 | > 10000 | – | –
